Patent publication US20230293535A1, “ERBB/BTK INHIBITORS” (Dizal (Jiangsu) Pharmaceutical Co., Ltd., priority 2018, published 2023)

Key:
Type in all cases: cell-based
[1] = test system: OCI-LY-10 cells; test: BTK (wt) cell proliferation, OCI-LY-10 (CellTiter-Glo, 72 h); conditions: Homo sapiens, OCI-Ly10, 72 h, OCI-LY-10 cells, 72 h, CellTiter-Glo; read-out: BTK WT OCI-LY-10 GI50;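 note: viable cells quantified via cellular ATP luminescence, proliferation given as percent of DMSO control after subtracting a duplicate plate read at time of dosing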
[2] = molecular target: T1, human EGFR exon 20 V769_D770insASV (Homo sapiens, UniProt P00533, INS769ASV); test: EGFR Exon20 ASV insertion cellular phosphorylation inhibition (MSD pEGFR Y1068/total EGFR); conditions: Ba/F3 EGFR ASV ins cells, 4 h compound, p-EGFR(Y1068)/total EGFR;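 note: electrochemiluminescent readout on an MSD SECTOR Imager, IL3-independent transduced cells in medium with 1% FBS, compound concentration series at 37 °C and 5% CO2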
T1 construct: expressed in transfected cells; host or cells: Ba/F3 (DSMZ ACC-300), lentiviral transduction, puromycin selection, IL3 depletion

[3] = test system: Her2 exon 20 insertion YVMA transduced NIH-3T3 cell line; test: Cell proliferation, Her2 YVMAins NIH-3T3 (CellTiter-Glo, 72 h); conditions: Mus musculus, NIH3T3, 72 h, Her2 YVMAins cells, 72 h proliferation; read-out: Her2 Exon 20 YVMA insertion GI50;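 note: viable cells quantified by ATP luminescence, growth over a day-zero baseline plate expressed as percent of DMSO control growth, compound dilution series in 10% FBS medium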
[4] = molecular target: T2, human EGFR exon 20 H773_V774insNPH (Homo sapiens, UniProt P00533, INS773NPH); test: EGFR Exon20 NPH insertion cellular phosphorylation inhibition (MSD pEGFR Y1068/total EGFR); conditions: Ba/F3 EGFR NPH ins cells, 4 h compound, p-EGFR(Y1068)/total EGFR;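 note: IL3-independent Ba/F3 cells with constitutively phosphorylated EGFR, compound exposure at 37 °C under 5% CO2, electrochemiluminescent MSD measurement of the p-EGFR to total EGFR ratio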
T2 construct: host or cells: Ba/F3
T2 sequence (P00533 with tags, fused parts or gaps INS773NPH): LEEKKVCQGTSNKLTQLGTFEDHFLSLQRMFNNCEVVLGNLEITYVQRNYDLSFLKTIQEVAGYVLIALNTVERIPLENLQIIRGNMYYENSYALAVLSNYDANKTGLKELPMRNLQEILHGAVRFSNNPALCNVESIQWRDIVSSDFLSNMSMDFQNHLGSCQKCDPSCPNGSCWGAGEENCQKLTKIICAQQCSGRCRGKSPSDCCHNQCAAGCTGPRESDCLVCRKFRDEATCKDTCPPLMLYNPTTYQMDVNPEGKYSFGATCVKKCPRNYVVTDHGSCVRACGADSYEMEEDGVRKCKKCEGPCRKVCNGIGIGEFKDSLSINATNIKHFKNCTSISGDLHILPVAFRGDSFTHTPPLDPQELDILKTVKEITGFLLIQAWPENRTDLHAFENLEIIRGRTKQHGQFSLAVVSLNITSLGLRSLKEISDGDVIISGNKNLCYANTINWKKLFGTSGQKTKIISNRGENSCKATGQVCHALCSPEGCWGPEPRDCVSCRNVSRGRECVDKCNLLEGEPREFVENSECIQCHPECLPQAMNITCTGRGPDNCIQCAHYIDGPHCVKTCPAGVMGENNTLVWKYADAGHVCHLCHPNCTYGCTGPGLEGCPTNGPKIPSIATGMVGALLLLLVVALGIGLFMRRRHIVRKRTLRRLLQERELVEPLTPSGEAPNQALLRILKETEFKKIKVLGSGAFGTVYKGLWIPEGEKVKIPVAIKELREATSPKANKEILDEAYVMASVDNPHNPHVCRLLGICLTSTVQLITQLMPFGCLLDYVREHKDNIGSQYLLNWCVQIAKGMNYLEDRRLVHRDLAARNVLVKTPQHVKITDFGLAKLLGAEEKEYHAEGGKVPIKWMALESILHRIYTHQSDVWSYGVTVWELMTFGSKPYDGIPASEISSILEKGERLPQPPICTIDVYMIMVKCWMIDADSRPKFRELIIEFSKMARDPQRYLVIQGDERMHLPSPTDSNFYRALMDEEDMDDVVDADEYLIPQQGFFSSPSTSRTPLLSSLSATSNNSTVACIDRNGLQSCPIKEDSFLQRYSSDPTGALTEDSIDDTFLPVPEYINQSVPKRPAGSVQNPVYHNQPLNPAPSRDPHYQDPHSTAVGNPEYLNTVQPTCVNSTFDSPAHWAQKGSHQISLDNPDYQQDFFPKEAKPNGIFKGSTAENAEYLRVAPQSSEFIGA

[5] = molecular target: T3, EGFR L858R&T790M (Homo sapiens, UniProt P00533, L858R/T790M); test: EGFR L858R and T790M cellular phosphorylation inhibition in NCI-H1975 (MSD); conditions: NCI-H1975 cells, 4 h compound, p-EGFR(Y1068)/total EGFR; read-out: EGFR L858R and T790M mutation IC50;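 note: phosphorylated and total EGFR detected by electrochemiluminescence, cells exposed to compound in medium containing 1% FBS at 37 °C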
T3 construct: host or cells: NCI-H1975
T3 sequence (P00533 25-1210 T790M/L858R): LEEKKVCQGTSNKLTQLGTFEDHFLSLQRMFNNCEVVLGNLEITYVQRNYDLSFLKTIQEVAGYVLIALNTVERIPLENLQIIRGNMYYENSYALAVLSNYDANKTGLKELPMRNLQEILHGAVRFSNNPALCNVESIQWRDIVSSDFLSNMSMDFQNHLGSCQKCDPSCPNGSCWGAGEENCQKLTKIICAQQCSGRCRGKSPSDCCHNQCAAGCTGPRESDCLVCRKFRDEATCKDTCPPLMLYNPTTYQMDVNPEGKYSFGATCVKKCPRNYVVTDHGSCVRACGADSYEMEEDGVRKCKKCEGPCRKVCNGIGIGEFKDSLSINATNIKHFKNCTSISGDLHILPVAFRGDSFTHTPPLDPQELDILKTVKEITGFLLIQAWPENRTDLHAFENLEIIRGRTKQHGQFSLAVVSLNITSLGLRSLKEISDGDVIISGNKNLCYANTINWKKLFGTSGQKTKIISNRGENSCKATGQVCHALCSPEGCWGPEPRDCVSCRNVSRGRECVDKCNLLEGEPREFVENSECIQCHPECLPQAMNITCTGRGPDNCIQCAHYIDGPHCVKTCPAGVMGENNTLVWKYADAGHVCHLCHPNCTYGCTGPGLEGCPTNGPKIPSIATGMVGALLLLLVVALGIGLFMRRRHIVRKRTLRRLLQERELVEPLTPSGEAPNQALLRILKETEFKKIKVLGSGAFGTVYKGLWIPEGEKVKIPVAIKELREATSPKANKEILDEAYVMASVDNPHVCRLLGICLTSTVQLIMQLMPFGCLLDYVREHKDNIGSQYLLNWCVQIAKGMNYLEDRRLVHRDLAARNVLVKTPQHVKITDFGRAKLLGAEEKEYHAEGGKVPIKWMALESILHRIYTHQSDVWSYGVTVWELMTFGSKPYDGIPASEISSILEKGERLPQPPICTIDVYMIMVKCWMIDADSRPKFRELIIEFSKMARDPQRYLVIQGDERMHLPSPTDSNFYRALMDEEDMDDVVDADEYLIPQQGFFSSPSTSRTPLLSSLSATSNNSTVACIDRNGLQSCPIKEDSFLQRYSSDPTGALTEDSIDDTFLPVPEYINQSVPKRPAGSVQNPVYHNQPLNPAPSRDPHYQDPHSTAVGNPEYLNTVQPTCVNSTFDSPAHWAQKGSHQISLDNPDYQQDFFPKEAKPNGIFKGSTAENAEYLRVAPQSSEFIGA

[6] = test system: Ba/F3 EGFR ASV ins cells; test: Cell proliferation, Ba/F3 EGFR ASV ins (CellTiter-Glo, 72 h); conditions: Ba/F3 EGFR, 72 h, Ba/F3 EGFR ASV ins, 72 h proliferation; read-out: EGFR Exon20 ASV insertion GI50;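 note: IL3-independent Ba/F3 cells transduced with EGFR V769_D770insASV, cellular ATP luminescence after compound exposure, growth relative to DMSO control with the day-0 baseline reading subtracted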
[7] = molecular target: T4, human Her2 exon 20 insertion mutation YVMA (Homo sapiens, UniProt P04626, INS775YVMA); test: Her2 Exon 20 YVMA insertion cellular phosphorylation inhibition (MSD p-Her2 Y1248/total Her2); conditions: Her2 YVMAins cells, 4 h compound;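 note: lentivirally transduced NIH-3T3 cells in 1% FBS medium, electrochemiluminescent MSD read-out, graded compound concentrations at 37 °C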
T4 construct: expressed in transfected cells; host or cells: NIH-3T3, lentiviral transduction, puromycin selection
T4 sequence (P04626 with tags, fused parts or gaps INS775YVMA): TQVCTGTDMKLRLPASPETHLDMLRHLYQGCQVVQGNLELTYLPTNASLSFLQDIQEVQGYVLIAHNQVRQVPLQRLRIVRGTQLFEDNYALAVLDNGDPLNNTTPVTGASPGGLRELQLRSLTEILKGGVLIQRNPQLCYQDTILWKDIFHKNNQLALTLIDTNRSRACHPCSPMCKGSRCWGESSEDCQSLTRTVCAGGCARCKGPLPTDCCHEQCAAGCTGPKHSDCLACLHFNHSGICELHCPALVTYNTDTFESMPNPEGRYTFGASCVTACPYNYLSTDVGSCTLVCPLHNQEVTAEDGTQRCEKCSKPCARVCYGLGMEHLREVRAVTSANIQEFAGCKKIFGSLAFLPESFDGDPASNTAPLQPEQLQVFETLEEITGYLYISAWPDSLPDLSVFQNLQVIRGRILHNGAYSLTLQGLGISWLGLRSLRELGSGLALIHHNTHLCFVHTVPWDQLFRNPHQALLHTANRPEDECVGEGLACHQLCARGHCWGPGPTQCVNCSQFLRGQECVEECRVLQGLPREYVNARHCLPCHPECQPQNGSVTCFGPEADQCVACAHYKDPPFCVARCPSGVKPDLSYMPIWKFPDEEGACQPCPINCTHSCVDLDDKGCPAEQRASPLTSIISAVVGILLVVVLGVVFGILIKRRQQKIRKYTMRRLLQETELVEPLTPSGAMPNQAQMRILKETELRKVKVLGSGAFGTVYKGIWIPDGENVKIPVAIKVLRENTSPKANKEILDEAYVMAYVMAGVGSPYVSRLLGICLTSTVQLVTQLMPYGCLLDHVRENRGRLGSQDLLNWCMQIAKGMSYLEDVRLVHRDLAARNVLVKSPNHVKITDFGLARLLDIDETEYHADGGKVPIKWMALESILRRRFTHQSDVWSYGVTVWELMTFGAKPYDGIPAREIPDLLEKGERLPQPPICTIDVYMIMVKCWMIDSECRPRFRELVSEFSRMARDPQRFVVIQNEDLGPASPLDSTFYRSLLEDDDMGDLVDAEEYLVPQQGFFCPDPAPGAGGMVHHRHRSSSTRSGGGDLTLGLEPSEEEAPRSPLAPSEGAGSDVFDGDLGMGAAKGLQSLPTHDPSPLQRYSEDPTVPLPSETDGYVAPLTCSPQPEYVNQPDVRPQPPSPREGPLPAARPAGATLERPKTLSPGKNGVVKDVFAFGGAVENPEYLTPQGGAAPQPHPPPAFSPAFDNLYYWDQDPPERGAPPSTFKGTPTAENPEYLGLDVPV
Protocol: The resulting cell line expressed phosphorylated Her2 protein and its proliferation depended on the mutation gene, which could be used for in vitro PD and anti-proliferation assays.
One day before the test, WT or mutant cells were seeded in 96 well plates at appropriate concentrations with corresponding growth media supplemented with 1% FBS, and incubated overnight. The next day, tested compounds at a series of concentrations were added into each individual well of the plates, and the plates were incubated for 4 h at 37° C. with 5% CO2.
The EGFR (Y1068) phosphorylation level (activity) of cells in each well were then measured with MSD kit named “MULTI-SPOT®96 4-Spot HB Prototype EGFR Triplex [sequence]: pEGFR(Tyr1068),pEGFR(Tyr1173), Total EGFR” according to the manufacturer’s instruction (MESO SCALE DISCOVERY, Cat# N45ZB-1). The assay is an electrochemiluminescent method for determining both phosphorylated and total EGFR of cells with an MSD SECTOR® Imager and the ratio of p-EGFR/total EGFR can be generated by the machine. The Her2 (Y1248) phosphorylation level (activity) of cells in each well were measured with MSD Kit named “Phospho-ErbB2 (Tyr1248) Assay Whole Cell Lysate Kit” according to the manufacturer’s instruction (MESO SCALE DISCOVERY, Cat# K151CLD-3). The assay is an electrochemiluminescent method (MESO SCALE DISCOVERY) for determining both phosphorylated and total Her2 of cells with an MSD SECTOR® Imager and then the ratio of p-Her2/total Her2 can be generated by the machine.

[8] = test system: WT EGFR cell line A-431; test: Cell proliferation, WT EGFR A431 (CellTiter-Glo, 72 h); conditions: Homo sapiens, A-431, 72 h, A431, 72 h proliferation; read-out: EGFR WT A431 GI50;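 note: proliferation from a luminescent ATP viability signal, expressed as 100 × (treated minus time-zero plate) over (DMSO control minus time-zero plate), cells grown with 10% FBS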
[9] = test system: Ri-1 cells; test: BTK (wt) cell proliferation, Ri-1 (CellTiter-Glo, 72 h); conditions: Ri-1, 72 h, Ri-1 cells, 72 h, CellTiter-Glo; read-out: BTK WT Ri-1 GI50;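 note: viable cells quantified as cellular ATP luminescence, proliferation normalized to a time-zero plate and the DMSO control, compounds tested across a dilution series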
[10] = test system: DB cells; test: BTK (wt) cell proliferation, DB (CellTiter-Glo, 72 h); conditions: Homo sapiens, DB, DB cells, CellTiter-Glo, read-out: Non-BCR activated DB GI50;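 note: DB cells in 384-well plates given a dilution series of compound, viable cells read by ATP luminescence, growth expressed versus DMSO control after subtracting a time-zero plate reading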
[11] = test system: Ba/F3 EGFR NPH ins cells; test: Cell proliferation, Ba/F3 EGFR NPH ins (CellTiter-Glo, 72 h); conditions: Ba/F3 EGFR, 72 h, Ba/F3 EGFR NPH ins, 72 h proliferation; read-out: EGFR Exon20 NPH insertion GI50;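 note: IL3-independent cells carrying constitutively phosphorylated EGFR, compound dilution series, viable cells quantified by ATP luminescence, growth relative to DMSO wells after subtracting pre-dosing (day 0) baseline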
Protocol: Similar to recombinant human EGFR exon 20 H769_V770insASV Ba/F3 cell line, the recombinant human EGFR exon 20 H773_V774insNPH Ba/F3 cell line also expresses constitutively phosphorylated EGFR protein and proliferates in the absence of IL3, which could be used for in vitro PD and anti-proliferation assays.
WT or mutant cells were seeded in 384 well plates at appropriate concentrations with corresponding growth media supplemented with 10% FBS, for each experiment, identical plates were prepared in duplicates, and the plates were incubated overnight. On the next day, one of each duplicated plates was dosed with tested compounds at a series of concentrations, and another one of the duplicated plate was analysied for G0 value. The dosed plates were incubate for another 72 h at 37° C. with 5% CO2 and the number of viable cells in each well of the G0 plates or the dosed plates were measured by CellTiter-Glo® Luminescent Cell Viability Assay (Promega). This assay is a luminescent method for determining the number viable cells through measurement of cellular ATP concentration by detection of luciferase activity. Detection reagents (15 µl) was dispensed into per well, and the plates were incubate for 30 min at room temperature. Then, the luminescence in each well was measured using the Envision plate reader (PerkinElmer). The percentage of proliferation was calculated based on the formula: %Proliferation= 100 × (G3 value of sample well-Go value)/(G3 value of DMSO control-Go value).

[12] = test system: NCI-H1975 EGFR L858R/T790M cells; test: Cell proliferation, NCI-H1975 EGFR L858R/T790M (CellTiter-Glo, 72 h); conditions: Homo sapiens, NCI-H1975, 72 h, NCI-H1975, 72 h proliferation; read-out: EGFR L858R and T790M mutation GI50;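 note: viable cells quantified by luciferase-based ATP luminescence, proliferation expressed relative to DMSO-treated wells (100%) after subtracting a parallel plate read at the time of dosing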
[13] = molecular target: T5, WT EGFR (Homo sapiens, UniProt P00533); test: WT EGFR cellular phosphorylation inhibition in A-431 (hEGF stimulated, MSD); conditions: A431 cells, 4 h compound, then 100 ng/ml hEGF 10 min;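 note: electrochemiluminescence read-out of EGFR Tyr1068 phosphorylation expressed as ratio to total EGFR, cells kept in medium with 1% FBS, compounds tested as a concentration series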
T5 construct: host or cells: A-431
T5 sequence (P00533 25-1210): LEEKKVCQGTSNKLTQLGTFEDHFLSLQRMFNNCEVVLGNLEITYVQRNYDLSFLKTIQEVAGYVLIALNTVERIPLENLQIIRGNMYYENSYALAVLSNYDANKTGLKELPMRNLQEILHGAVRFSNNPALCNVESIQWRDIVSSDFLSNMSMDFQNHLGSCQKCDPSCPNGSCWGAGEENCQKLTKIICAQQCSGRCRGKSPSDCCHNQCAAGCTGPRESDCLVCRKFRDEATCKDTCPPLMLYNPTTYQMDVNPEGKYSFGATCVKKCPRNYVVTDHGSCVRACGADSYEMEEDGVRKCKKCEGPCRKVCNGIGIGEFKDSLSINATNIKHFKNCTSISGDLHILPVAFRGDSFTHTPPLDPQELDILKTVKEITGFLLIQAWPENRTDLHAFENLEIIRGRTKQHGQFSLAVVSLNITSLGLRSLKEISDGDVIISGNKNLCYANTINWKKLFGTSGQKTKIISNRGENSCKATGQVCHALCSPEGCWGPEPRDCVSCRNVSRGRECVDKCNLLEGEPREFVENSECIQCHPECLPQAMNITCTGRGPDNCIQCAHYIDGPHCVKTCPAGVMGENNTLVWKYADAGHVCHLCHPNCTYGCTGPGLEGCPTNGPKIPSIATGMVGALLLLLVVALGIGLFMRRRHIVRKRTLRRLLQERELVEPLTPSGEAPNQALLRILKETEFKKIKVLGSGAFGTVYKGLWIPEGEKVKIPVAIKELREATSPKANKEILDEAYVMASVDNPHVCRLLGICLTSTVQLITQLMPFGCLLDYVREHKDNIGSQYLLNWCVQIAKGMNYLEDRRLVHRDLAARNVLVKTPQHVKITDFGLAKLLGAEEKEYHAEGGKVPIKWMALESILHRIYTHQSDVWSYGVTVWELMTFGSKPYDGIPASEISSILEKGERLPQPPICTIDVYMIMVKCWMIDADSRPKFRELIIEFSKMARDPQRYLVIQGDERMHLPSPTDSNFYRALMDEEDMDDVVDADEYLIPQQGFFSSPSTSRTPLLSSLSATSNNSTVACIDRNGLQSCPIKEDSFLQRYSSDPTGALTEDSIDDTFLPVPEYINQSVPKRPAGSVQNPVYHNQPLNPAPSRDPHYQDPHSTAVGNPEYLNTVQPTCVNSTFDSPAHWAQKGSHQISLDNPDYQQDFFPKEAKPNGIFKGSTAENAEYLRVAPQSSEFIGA

[14] = test system: TMD-8 cells; test: BTK (wt) cell proliferation, TMD-8 (CellTiter-Glo, 72 h); conditions: Homo sapiens, TMD8, 72 h, TMD-8 cells, 72 h, CellTiter-Glo; read-out: BTK WT TMD-8 GI50;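 note: viable cells quantified by ATP-based luminescence, proliferation expressed as percent of DMSO control after subtracting a time-zero baseline plate read at dosing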

Row | SMILES | GI50 [1] [nM] | IC50 [2] [nM] | GI50 [3] [nM] | IC50 [4] [nM] | IC50 [5] [nM] | GI50 [6] [nM] | IC50 [7] [nM] | GI50 [8] [nM] | GI50 [9] [nM] | GI50 [10] [nM] | GI50 [11] [nM] | GI50 [12] [nM] | IC50 [13] [nM] | GI50 [14] [nM]
1 | C=CC(=O)Nc1cc(Nc2ncnc(Nc3ccccc3C(C)(O)C(F)(F)F)n2)c(OC)cc1N(C)CCN(C)C (stereo not shown) [Compound 66, N-(2-((2-(dimethylamino)ethyl)(methyl)amino)-4-methoxy-5-(4-(2-(1,1,1-trifluoro-2-hydroxypropan-2-yl)phenylamino)-1,3,5-triazin-2-ylamino)phenyl) acrylamide] | > 3000 | 9.6 | 29.1 | 20.8 | 0.6 | 25.4 | 8.2 | 14.9 | > 3000 | > 3000 | 22.6 | 2.3 | 23.6 | 582
2 | C=CC(=O)Nc1cc(Nc2ncnc(Nc3cc(Cl)c(Cl)cc3C(C)(C)O)n2)c(OC)cc1N1CC[C@@H]1CN(C)C [Compound 54, (R)-N-(5-(4-(4,5-dichloro-2-(2-hydroxypropan-2-yl)phenylamino)-1,3,5-triazin-2-ylamino)-2-(2-((dimethylamino)methyl)azetidin-1-yl)-4-methoxyphenyl)acrylamide] | 4.42 | 39.4 | 210 | 29.9 | 2.4 | 104 | 14.2 | 41.3 | 9.97 | > 3000 | 68 | 6.1 | 60.5 | 3.62
3 | C=CC(=O)Nc1cc(Nc2ncnc(Nc3cc(Cl)c(Cl)cc3C(C)(C)O)n2)c(OC)cc1N(C)CCN(C)C [Compound 15, N-(5-(4-(4,5-dichloro-2-(2-hydroxypropan-2-yl)phenylamino)-1,3,5-triazin-2-ylamino)-2-((2-(dimethylamino)ethyl)(methyl)amino)-4-methoxyphenyl)a crylamide] | 4.95 | 7.5 | 32.7 | 15.1 | 0.4 | 21.1 | 3.8 | 7.9 | 6.68 | 1340 | 32.9 | 7.4 | 8.2 | 2.44
4 | C=CC(=O)Nc1cc(Nc2ncnc(Nc3cc4cc[nH]c4cc3C(C)(C)O)n2)c(OC)cc1N(C)CCN(C)C [Compound 95, N-(2-((2-(dimethylamino)ethyl)(methyl)amino)-5-(4-(6-(2-hydroxypropan-2-yl)-1H-indol-5-ylamino)-1,3,5-triazin-2-ylamino)-4-methoxyphenyl)acrylamide] | 0.29 | 6.2 | 15.8 | 7.1 | 0.3 | 16 | 2.2 | 2.9 | 971 | > 3000 | 20.5 | 3.7 | 3.5 | 1.16
5 | C=CC(=O)Nc1cc(Nc2nccc(Nc3cc(Cl)c(F)cc3C(C)(O)C(F)(F)F)n2)c(OC)cc1N1CC[C@@H](N(C)C)C1 (stereo partly drawn) [Compound 92, N-(5-(4-(5-chloro-4-fluoro-2-(1,1,1-trifluoro-2-hydroxypropan-2-yl)phenylamino)pyrimidin-2-ylamino)-2-((R)-3-(dimethylamino)pyrrolidin-1-yl)-4-methoxyphenyl) acrylamide] | 228 | 71.2 | 212 | 79.9 | 1.7 | 92.1 | 26 | 40.6 | 146 | 1200 | 84.7 | 4.9 | 765 | 63.8
